Here are results for 16 compounds from patent publication EP3212201B1, “NUCLEOSIDE KINASE INHIBITORS” (BCI Pharma, priority 2014, dated 2016).

Molecules are shown by their SMILES.

For experiment [1], the target named is T1, DYRK3 (Homo sapiens, UniProt O43781).
T1 sequence (O43781 1-588): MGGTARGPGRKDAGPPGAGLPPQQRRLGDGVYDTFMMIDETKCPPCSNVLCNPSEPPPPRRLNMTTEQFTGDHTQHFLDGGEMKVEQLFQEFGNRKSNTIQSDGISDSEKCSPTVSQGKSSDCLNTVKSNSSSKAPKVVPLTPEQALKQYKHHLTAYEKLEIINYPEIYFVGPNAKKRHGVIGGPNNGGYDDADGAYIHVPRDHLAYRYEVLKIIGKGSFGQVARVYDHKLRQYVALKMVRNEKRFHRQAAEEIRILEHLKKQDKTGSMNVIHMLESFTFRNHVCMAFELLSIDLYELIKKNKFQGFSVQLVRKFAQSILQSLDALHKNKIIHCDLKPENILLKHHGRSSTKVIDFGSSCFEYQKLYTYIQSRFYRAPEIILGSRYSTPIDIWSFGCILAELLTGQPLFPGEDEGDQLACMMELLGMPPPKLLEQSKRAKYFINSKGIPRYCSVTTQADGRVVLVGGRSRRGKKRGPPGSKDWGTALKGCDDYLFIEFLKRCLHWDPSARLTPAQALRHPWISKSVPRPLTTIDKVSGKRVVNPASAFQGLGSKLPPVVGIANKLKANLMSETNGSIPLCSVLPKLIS
Kind of experiment: FRET-based coupled-enzyme protein kinase inhibition assay. The format is biochemical. The following applies: compound at 10 µM, 1% DMSO. Summed up:
(§1)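 Inhibition was quantified ratiometrically, as coumarin over fluorescein emission following 400 nm excitation, on a doubly labeled peptide whose cleavage by development reagent requires it to remain unphosphorylated. Kinase reactions ran 60 min at room temperature with ATP at apparent Km.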

For experiment [2], the target named is T2, JAK3 (Homo sapiens, UniProt P52333).
T2 sequence (P52333 1-1124): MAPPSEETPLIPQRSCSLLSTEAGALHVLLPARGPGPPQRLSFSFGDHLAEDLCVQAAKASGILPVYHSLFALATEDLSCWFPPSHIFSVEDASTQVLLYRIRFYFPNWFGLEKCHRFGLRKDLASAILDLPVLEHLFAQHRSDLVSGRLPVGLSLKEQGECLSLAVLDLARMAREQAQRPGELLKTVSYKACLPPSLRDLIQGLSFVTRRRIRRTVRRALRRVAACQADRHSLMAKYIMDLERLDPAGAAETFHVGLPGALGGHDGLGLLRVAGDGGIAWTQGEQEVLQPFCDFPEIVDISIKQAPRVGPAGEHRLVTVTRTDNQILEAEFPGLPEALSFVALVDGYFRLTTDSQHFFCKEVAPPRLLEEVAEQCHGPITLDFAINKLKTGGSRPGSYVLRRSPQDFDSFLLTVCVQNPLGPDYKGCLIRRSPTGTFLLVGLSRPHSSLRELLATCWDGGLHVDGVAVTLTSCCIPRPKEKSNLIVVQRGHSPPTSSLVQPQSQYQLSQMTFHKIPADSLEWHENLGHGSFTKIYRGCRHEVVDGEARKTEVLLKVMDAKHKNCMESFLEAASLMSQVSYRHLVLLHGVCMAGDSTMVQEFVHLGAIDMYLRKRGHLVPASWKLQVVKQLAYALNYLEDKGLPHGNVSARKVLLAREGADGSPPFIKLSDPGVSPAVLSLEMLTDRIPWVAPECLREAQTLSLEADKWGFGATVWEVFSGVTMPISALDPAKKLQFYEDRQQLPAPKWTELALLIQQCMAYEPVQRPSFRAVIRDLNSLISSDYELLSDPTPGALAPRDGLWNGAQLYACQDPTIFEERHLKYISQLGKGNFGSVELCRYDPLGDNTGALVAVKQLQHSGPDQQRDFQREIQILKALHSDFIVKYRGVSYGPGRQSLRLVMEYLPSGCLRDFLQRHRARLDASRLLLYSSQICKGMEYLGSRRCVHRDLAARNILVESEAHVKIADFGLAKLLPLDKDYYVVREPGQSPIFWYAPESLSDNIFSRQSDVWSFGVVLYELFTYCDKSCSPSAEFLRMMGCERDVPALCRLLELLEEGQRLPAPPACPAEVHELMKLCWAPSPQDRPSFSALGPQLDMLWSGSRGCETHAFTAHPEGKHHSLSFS
Described as above. The format is biochemical. The following applies: compound at 10 µM, 1% DMSO. Summed up: as §1

As usually defined, the inhibition is the relative decrease from the control value, in per cent. In the case of `Nc1ncnc2c1ncn2[C@@H]1O[C@H](COC(=O)N2CCN(C(=O)N3CCOCC3)CC2)[C@@H](O)[C@H]1O` [Compound C89], the inhibition at 10 µM in experiment [1] turned out to be 3%; in experiment [2], 2%.
The like results for `Nc1ncnc2c1ncn2[C@@H]1O[C@H](COC(=O)N2CCC(Cc3ccc(F)cc3)C2)[C@@H](O)[C@H]1O` (some centres unmarked) [Compound C66] were, in that order, 7% and 0%.
For `Nc1ncnc2c1ncn2[C@@H]1O[C@H](COC(=O)N2CCN(CCc3ccccc3)CC2)[C@@H](O)[C@H]1O` [Compound C26] the same measures were 2% and -7%.
`CN1CCN(CCNC(=O)OC[C@H]2O[C@@H](n3cnc4c(N)ncnc43)[C@H](O)[C@@H]2O)CC1` [Compound C46]: the values for the inhibition at 10 µM in experiment [1] and in experiment [2] were 4% and 2%, respectively.
Regarding `CC(C)N1CCC(NC(=O)OC[C@H]2O[C@@H](n3cnc4c(N)ncnc43)[C@H](O)[C@@H]2O)CC1` [Compound C19], the inhibition at 10 µM in experiment [1] was 9%; in experiment [2], -2%.
For the compound `Nc1ncnc2c1ncn2[C@@H]1O[C@H](COC(=O)NCCCc2nc3ccccc3[nH]2)[C@@H](O)[C@H]1O` [Compound C1], the inhibition at 10 µM was 12% in experiment [1] and -2% in experiment [2].
In the case of `CN(C)CCNC(=O)OC[C@H]1O[C@@H](n2cnc3c(N)ncnc32)[C@H](O)[C@@H]1O` [Compound C85], the inhibition at 10 µM in experiment [1] was 7%; in experiment [2], -12%.
Take `CS(=O)(=O)N1CC2(CCN(C(=O)OC[C@H]3O[C@@H](n4cnc5c(N)ncnc54)[C@H](O)[C@@H]3O)CC2)c2ccccc21` [Compound C98]: the values for the inhibition at 10 µM in experiment [1] and in experiment [2] were 5% and -1%, respectively.
As for `Nc1ncnc2c1ncn2[C@@H]1O[C@H](COC(=O)NC[C@H](O)CO)[C@@H](O)[C@H]1O` [Compound C8], the inhibition at 10 µM in experiment [1] was 31%; in experiment [2] it was -2%.
As to `Nc1ncnc2c1ncn2[C@@H]1O[C@H](COC(=O)N2CCN(Cc3ccccc3)CC2CO)[C@@H](O)[C@H]1O` (some centres unmarked) [Compound C13], the inhibition at 10 µM worked out at 9% in experiment [1] and 1% in experiment [2].
For `Nc1ncnc2c1ncn2[C@@H]1O[C@H](COC(=O)N2CCC[C@H]2CO)[C@@H](O)[C@H]1O` [Compound C9] the same measures were 11% and -8%.
The like results for `Nc1ncnc2c1ncn2[C@@H]1O[C@H](COC(=O)NCCN2CCCC2=O)[C@@H](O)[C@H]1O` [Compound C22] were, in that order, 3% and -8%.
Consider `C[C@@H](NC(=O)OC[C@H]1O[C@@H](n2cnc3c(N)ncnc32)[C@H](O)[C@@H]1O)c1ccc(Cl)cc1` [Compound C4], for which the values for the inhibition at 10 µM in experiment [1] and in experiment [2] were 5% and 6%, respectively.
The like results for `Nc1ncnc2c1ncn2[C@@H]1O[C@H](COC(=O)N[C@@H]2CCN(Cc3ccccc3)C2)[C@@H](O)[C@H]1O` [Compound C10] were, in that order, 8% and -2%.
The like results for `N#CCCN1CCN(C(=O)OC[C@H]2O[C@@H](n3cnc4c(N)ncnc43)[C@H](O)[C@@H]2O)CC1` [Compound C70] were, in that order, 6% and -8%.
For `Nc1ncnc2c1ncn2[C@@H]1O[C@H](COC(=O)N2CCS(=O)(=O)CC2)[C@@H](O)[C@H]1O` [Compound C100] the same measures were 12% and -2%.
